ChEMBL document CHEMBL1133741, “New anilinophthalazines as potent and orally well absorbed inhibitors of the VEGF receptor tyrosine kinases useful as antagonists of tumor-driven angiogenesis” (J Med Chem, 2000)

Legend:
[1] = The maximum time reported (tmax) at an oral dose of 50 mg/Kg in mice; type: ADME, organism-based; conditions: mouse, in vivo
[2] = target: Mast/stem cell growth factor receptor Kit (Homo sapiens, UniProt P10721); assay: Inhibition of Proto-oncogene tyrosine-kinase c-Kit
[3] = target: Vascular endothelial growth factor receptor 1 (Homo sapiens, UniProt P17948); assay: Inhibitory activity against Flt-kinase
Sequence of Vascular endothelial growth factor receptor 1 (P17948 whole entry): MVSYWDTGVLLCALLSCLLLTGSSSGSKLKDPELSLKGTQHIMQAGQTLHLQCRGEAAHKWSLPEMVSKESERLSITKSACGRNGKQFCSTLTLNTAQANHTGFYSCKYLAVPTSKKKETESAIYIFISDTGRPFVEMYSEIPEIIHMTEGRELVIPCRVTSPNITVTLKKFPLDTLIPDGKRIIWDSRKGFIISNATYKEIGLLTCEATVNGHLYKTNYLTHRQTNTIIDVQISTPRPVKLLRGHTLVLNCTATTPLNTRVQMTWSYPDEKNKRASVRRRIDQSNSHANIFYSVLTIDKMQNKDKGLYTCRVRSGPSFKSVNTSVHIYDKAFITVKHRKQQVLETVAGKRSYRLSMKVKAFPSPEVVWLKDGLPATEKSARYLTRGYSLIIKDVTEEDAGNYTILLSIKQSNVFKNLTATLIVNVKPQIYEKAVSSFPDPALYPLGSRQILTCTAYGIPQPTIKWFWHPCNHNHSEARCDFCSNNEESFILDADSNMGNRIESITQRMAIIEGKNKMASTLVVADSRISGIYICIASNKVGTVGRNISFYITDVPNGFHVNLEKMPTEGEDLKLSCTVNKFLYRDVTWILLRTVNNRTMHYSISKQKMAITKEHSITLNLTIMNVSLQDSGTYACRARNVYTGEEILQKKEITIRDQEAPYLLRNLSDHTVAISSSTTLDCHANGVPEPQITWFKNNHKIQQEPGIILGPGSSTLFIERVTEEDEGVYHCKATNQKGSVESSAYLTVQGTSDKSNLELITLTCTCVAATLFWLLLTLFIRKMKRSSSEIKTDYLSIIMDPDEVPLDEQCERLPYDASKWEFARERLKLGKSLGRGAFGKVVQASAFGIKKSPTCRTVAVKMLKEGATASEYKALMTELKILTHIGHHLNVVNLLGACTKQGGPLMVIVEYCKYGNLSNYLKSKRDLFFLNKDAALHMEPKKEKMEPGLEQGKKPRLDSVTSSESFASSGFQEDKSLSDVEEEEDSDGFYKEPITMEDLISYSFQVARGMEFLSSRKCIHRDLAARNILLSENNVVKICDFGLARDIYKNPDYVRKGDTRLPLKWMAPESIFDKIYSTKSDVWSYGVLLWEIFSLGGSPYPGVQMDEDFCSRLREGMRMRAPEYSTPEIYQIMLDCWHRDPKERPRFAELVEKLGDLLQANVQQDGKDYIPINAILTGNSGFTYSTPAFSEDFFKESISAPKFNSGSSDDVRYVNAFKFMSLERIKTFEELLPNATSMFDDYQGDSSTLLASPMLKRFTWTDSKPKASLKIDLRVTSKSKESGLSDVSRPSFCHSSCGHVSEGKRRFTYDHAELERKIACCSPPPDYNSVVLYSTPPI

[4] = target: Platelet-derived growth factor receptor beta (Homo sapiens, UniProt P09619); assay: Inhibition of PDGF- beta receptor kinase
Sequence of Platelet-derived growth factor receptor beta (P09619 whole entry): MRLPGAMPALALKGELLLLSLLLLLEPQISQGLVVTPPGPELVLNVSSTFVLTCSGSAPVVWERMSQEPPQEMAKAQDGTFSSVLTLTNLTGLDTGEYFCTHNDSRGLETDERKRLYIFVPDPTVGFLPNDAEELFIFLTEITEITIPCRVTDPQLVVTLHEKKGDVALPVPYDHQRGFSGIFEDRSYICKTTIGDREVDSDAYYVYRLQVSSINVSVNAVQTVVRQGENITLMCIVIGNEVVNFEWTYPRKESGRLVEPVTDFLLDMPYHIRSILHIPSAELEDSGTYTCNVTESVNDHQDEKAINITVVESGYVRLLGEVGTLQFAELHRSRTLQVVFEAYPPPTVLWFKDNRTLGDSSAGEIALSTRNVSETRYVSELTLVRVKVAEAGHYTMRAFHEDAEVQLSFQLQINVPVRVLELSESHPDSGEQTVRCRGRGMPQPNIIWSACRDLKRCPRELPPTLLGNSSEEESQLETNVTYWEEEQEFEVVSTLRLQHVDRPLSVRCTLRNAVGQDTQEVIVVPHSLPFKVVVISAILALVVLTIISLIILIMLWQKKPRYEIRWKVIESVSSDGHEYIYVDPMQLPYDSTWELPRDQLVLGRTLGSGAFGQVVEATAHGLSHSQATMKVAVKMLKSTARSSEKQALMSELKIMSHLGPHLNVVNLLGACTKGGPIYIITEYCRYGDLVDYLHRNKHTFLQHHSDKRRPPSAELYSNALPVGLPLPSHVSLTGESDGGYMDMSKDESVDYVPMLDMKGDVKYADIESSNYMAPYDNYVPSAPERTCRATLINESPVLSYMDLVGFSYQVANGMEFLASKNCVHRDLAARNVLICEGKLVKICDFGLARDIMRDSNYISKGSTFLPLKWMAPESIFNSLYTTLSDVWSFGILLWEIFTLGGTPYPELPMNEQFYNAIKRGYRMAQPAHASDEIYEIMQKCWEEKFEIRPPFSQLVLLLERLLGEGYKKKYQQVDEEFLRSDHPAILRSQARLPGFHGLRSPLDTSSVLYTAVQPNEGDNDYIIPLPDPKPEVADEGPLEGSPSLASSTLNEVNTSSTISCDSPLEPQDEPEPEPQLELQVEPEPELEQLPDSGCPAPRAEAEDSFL

[5] = (§1) The maximum concentration observed (Cmax) in the blood sample at indicated time point (tmax) at a dose 50 mg/Kg administered orally in mice.; type: ADME, organism-based; parameters: dose 50 mg/Kg, route oral; conditions: mouse, in vivo, po
[6] = target: T1, Vascular endothelial growth factor receptor 2 (Homo sapiens, UniProt P35968); conditions: CHO
T1 sequence (P35968 whole entry, the tested form may be a part): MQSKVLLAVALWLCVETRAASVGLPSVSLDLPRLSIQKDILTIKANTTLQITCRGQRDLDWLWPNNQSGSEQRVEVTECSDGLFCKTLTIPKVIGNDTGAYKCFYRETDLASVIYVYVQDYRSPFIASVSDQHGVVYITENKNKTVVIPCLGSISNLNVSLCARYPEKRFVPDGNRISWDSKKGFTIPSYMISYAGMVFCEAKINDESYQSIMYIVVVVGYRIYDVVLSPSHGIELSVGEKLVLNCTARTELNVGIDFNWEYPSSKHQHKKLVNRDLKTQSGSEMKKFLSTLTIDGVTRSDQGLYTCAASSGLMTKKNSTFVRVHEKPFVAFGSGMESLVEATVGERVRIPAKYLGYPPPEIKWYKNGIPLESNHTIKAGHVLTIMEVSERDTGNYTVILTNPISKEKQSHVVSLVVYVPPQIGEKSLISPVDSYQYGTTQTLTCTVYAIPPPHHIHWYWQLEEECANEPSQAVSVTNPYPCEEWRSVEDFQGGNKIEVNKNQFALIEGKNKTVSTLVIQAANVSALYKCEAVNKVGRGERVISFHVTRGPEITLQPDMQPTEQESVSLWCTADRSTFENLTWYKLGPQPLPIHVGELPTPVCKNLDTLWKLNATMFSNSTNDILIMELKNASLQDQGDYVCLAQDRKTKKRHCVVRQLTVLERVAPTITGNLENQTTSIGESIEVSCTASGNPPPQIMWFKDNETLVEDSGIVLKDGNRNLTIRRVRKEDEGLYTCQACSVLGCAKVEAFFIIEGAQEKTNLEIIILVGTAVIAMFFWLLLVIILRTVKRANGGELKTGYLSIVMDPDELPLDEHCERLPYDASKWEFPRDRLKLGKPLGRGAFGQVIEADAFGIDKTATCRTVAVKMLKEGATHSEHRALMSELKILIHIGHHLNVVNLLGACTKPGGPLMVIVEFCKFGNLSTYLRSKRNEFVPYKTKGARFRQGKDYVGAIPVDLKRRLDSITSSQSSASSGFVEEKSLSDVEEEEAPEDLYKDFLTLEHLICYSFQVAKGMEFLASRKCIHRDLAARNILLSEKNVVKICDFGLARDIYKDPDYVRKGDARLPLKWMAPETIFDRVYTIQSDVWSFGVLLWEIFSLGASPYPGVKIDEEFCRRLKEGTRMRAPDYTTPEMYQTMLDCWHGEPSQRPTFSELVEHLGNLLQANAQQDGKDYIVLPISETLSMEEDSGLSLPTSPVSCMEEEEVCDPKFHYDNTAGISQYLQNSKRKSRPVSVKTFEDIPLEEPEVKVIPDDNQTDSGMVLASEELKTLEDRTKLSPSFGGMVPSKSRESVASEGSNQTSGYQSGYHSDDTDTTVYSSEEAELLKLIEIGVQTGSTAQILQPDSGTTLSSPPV

[7] = target: T1, Vascular endothelial growth factor receptor 2; assay: Inhibitory activity against kinase domain containing receptor (KDR/VEGFR2)
Mus musculus = assay: as §1; type: ADME, organism-based; parameters: dose 50 mg/Kg, route oral; conditions: in vivo, po

Sequence of Mast/stem cell growth factor receptor Kit (P10721 whole entry): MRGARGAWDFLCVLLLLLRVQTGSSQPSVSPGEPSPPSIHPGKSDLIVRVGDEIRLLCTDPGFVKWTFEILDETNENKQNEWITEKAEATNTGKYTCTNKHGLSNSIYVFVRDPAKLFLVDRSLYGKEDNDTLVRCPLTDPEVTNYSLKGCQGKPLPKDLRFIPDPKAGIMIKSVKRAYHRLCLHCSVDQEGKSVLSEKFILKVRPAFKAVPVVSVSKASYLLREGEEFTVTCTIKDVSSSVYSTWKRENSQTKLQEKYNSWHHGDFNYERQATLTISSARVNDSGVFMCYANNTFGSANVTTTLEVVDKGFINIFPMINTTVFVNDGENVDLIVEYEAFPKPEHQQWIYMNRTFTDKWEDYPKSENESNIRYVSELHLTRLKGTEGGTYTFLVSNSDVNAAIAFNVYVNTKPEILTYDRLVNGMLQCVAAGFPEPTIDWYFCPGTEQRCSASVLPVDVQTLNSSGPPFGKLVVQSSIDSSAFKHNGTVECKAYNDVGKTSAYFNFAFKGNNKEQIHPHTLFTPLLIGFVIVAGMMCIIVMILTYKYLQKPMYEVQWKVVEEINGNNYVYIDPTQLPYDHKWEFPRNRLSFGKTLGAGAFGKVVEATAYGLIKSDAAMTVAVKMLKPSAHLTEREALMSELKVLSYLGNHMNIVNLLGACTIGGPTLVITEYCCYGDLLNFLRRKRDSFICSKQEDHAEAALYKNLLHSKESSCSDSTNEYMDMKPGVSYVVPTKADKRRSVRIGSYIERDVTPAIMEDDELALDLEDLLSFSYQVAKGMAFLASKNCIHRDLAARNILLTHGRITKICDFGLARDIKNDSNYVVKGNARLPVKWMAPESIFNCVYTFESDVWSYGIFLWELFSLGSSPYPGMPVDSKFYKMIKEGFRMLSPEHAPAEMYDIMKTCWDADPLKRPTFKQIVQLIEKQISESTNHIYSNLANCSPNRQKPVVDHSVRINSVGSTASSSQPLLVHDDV

Tmax [1] [min] | IC50 [2] [nM] | IC50 [3] [nM] | IC50 [4] [nM] | Cmax [5] [µM] | ED50 [6] [nM] | IC50 [7] [nM] | Cmax (Mus musculus) [nM] | Structure (SMILES)
120 | > 10000 | 600 | > 10000 | 6 | 39 | 380 |  | FC(F)(F)c1cc(Br)cc(Nc2nnc(Cc3ccncc3)c3ccccc23)c1
30 | 7900 |  | 4000 | 0.5 |  |  |  | Oc1cccc(Nc2nnc(Cc3ccncc3)c3ccccc23)c1
 |  | 470 |  |  |  |  |  | Clc1ccc(Nc2nnc(Cc3ccncc3)c3ccncc23)cc1
120 | 2700 | 600 | 4000 | 7.6 |  |  |  | FC(F)(F)c1cc(Nc2nnc(Cc3ccncc3)c3ccccc23)ccc1Cl
 |  | 420 |  |  |  | 210 |  | CC(c1ccncc1)c1nnc(Nc2ccc(Cl)cc2)c2ccccc12 (centres undefined)
30 | 3000 |  | 800 | 21 |  |  |  | COc1cccc(Nc2nnc(Cc3ccncc3)c3ccccc23)c1
 |  | > 10000 |  |  |  | > 10000 |  | Cc1cc(Cc2nnc(Nc3ccc(Cl)cc3)c3ccccc23)cc(C)n1
 | > 10000 |  | 2800 |  |  |  |  | c1ccc(Nc2nnc(Cc3ccncc3)c3ccccc23)cc1
 |  | 260 |  |  |  |  |  | Cc1c(Cc2ccncc2)nnc(Nc2ccc(Cl)cc2)c1C
30 | 2500 | 40 | 1000 | 13 | 8 | 80 |  | Cc1cccc(Nc2nnc(Cc3ccncc3)c3ccccc23)c1
 | 1400 |  | 1400 |  |  |  |  | c1ccc(-c2ccc(Nc3nnc(Cc4ccncc4)c4ccccc34)cc2)cc1
30 | 3500 | 260 | 2000 | 8 |  |  |  | COc1cc(Nc2nnc(Cc3ccncc3)c3ccccc23)ccc1Cl
15 |  |  |  | 32 |  |  |  | Clc1ccc(Nc2nnc(Cc3ccncc3)c3ccccc23)cc1.O=C(O)CCC(=O)O
30 | 700 | 70 | 600 | 9.8 | 27 | 30 |  | Clc1ccc(Nc2nnc(Cc3ccncc3)c3ccccc23)cc1Cl

More lines, now with the values behind:

Structure (SMILES) | Tmax [1] [min] | IC50 [2] [nM] | IC50 [3] [nM] | IC50 [4] [nM] | Cmax [5] [µM] | ED50 [6] [nM] | IC50 [7] [nM] | Cmax (Mus musculus) [nM]
Cc1cc(C)cc(Nc2nnc(Cc3ccncc3)c3ccccc23)c1 | 30 | 2000 | 150 | 800 | 10 | 10 | 40 | 
Clc1ccc(Oc2nnc(Cc3ccncc3)c3ccccc23)cc1 |  |  | 60 |  |  |  | 1600 | 
Cc1cc(Cc2nnc(Nc3ccc(Cl)cc3)c3ccccc23)ccn1 |  |  |  |  |  |  | 240 | 
Fc1cc(Nc2nnc(Cc3ccncc3)c3ccccc23)cc(C(F)(F)F)c1 |  | > 10000 | 350 | > 10000 |  | 40 | 200 | 
Clc1ccc(Nc2nnc(Cc3cccnc3)c3ccccc23)cc1 |  |  | 9800 |  |  |  | > 10000 | 
Clc1ccc(Nc2nnc(Cc3ccncc3)c3c2CCCC3)cc1 |  |  | 3600 |  |  |  | > 10000 | 
Cc1cc(C)c(/C=C2\C(=O)Nc3ccccc32)[nH]1 [SEMAXANIB] | 30 |  |  |  |  | 930 |  | 300
Clc1ccc(Nc2nnc(Cc3ccncc3)c3ncccc23)cc1 |  |  | 240 |  |  |  |  | 
CC(C)(C)c1ccc(Nc2nnc(Cc3ccncc3)c3ccccc23)cc1 | 30 | 1000 |  | 2000 | 25.6 |  |  | 
Clc1ccc(Nc2nnc(Cc3ccncn3)c3ccccc23)cc1 |  |  | 760 |  |  |  | 410 | 
Clc1ccc(Nc2nnc(NCc3ccncc3)c3ccccc23)cc1 |  |  | 2600 |  |  |  | 4700 | 
Nc1ccc2c(Cc3ccncc3)nnc(Nc3ccc(Cl)cc3)c2c1 |  |  | 650 |  |  |  |  | 
Clc1ccc(Nc2nnc(Cc3ccncc3)c3cccnc23)cc1 |  |  | 1700 |  |  |  |  | 
Clc1ccc(Sc2nnc(Cc3ccncc3)c3ccccc23)cc1 |  |  | 70 |  |  |  | 1300 | 
Clc1ccc(Nc2nnc(Cc3ccncc3)c3cnccc23)cc1 |  |  | 230 |  |  |  | 610 | 
Clc1ccc(Nc2nnc(Cc3ccccn3)c3ccccc23)cc1 |  |  | > 10000 |  |  |  | > 10000 | 
CN(c1ccc(Cl)cc1)c1nnc(Cc2ccncc2)c2ccccc12 |  |  | 2300 |  |  |  | 3500 | 
Cc1ccc2c(Cc3ccncc3)nnc(Nc3ccc(Cl)cc3)c2c1 |  |  | 3000 |  |  |  | 4700 | 
